Paper PMC5997364, “OG716: Designing a fit-for-purpose lantibiotic for the treatment of Clostridium difficile infections” (PLoS ONE, 2018)
Converted amounts (≈) assume the structure as drawn. “And” between values parts separate entries of the source, which are not always exact repeats. Identical values can stand only once. Like-named read-outs stand apart in the source and are kept apart here. Ends that are not written are not given here.

How the values were obtained:
C. difficile [1] = assay: microbe, parasite or virus in culture; assay type: cell-based, Clostridium difficile
Procedure: MIC testing for C. difficile was performed by Eurofins Panlabs Taiwan LTD based on modifications from the CLSI M11-A8 broth dilution method for Bacteroides fragilis susceptibility testing. Briefly, Reinforced Clostridial Medium (RCM) was pre-reduced by over-night incubation in an anaerobic chamber (80% N2, 10% CO2, and 10% H2) prior to use. MU1140 and variants were dissolved in 100% DMSO, diluted by 2-fold serial dilution in 100% DMSO, for a total of 11 concentrations. A 4 μL aliquot of each dilution was added to 96 μL RCM in wells of a 96 well plate using a Biomek FX instrument (Beckman Coulter, USA), followed by the addition of C. difficile suspension, in RCM, 100 μL/well. The final bacterial count was 2 x 10^5 to 1 x 10^6 colony forming units/mL, in 200 μL per assay well. […] Assay plates were incubated at 35°C for 46 to 48 hr in the anaerobic chamber (A35 Anaerobic Workstation, Don Whitley, UK). Following incubation, test plates were visually examined and each well was scored for growth then the MIC was recorded as the lowest concentration that results in complete inhibition of growth. Each test substance was evaluated in duplicate. Vehicle-control and vancomycin were used as blank and positive controls, respectively. The MIC values of the vancomycin controls were consistent with the historical data against test strains (data not shown).

[2] = Solubility 5% D-mannitol, 5% D-mannitol in water, visual assessment
Procedure: (§1) To that end, approximately 10 mg of each compound was weighed on a high-precision balance and dispensed into a 1.5 mL microfuge tube.

[3] = 1.0 mg/mL in water
Procedure: Five aliquots of each compound were prepared by dissolving them to 1.0 mg/mL in HPLC grade water (Fisher Scientific, USA). A total of 2 aliquots of the solution were placed in a 37°C stability chamber, and 2 aliquots were placed in a 50°C chamber. Samples were collected on days 0, 2 and 7, centrifuged at 12,000 x g for 5 min, and the supernatants were transferred to a fresh tube. Each sample was diluted 1:4 with 0.05% trifluoroacetic acid (TFA) and the purity and quantity were analyzed by HPLC as described above.

[4] = 5% D-mannitol
Procedure: as §1

[5] = FaSSIF with trypsin/chymotrypsin
Procedure: FaSSIF was supplemented with 2% pancreatin (w/v), 6 μg/mL of trypsin and 6 μg/mL of α-chymotrypsin and was prepared as previously reported [22]. All proteases were from Fisher ScientificSamples were collected at the same frequency as in the FaSSGF study, and analyzed using the same method.

C. difficile UNT103-1 = assay: Golden Syrian hamster model of CDAD, oral gavage efficacy; assay type: in vivo
Procedure: In vivo efficacy was performed as previously described in detail, except that the compounds were administered via oral gavage (rather than the illeal cannulation method used previously). This study was carried out in accordance with protocols 2016–0015 approved by the Institutional Animal Care and Use Committee (IACUC) at the University of North Texas Health Science Center (UNTHSC). IACUC established guidelines ensuring that approved protocols are in compliance with federal and state laws regarding animal care and use activity at UNTHSC. The UNTHSC animal program in USDA registered (74-R0081) and fully AAALAC accredited.
Briefly, 7–8 weeks old Male Golden Syrian hamsters were used in this study, and weighted 100–120 g (Charles River Laboratories, Wilmington, MA). C. difficile UNT103-1 (VA11, non epidemic (cdtB-, REA group J) was received from Curtis Donskey, Cleveland VA Hospital, Cleveland, OH) and cultured as previously described. The isolate has been previously utilized for the hamster model by the University of North Texas Health Sciences Center (UNTHSC). The infection inoculum was tested to determine the ratio of spores to vegetative cells. In accordance with the details in Table 2, a total of 60 animals were used in this study. Animals were randomized into the 10 study groups (N = 6 per group) prior to treatment. On Day 0, animals were infected with 5.63 x 10^7 total CFU of which 2.81 x 10^4 represented inoculated spores. On Day 1, at 24 hrs post-infection, all animals received a single subcutaneous injection of clindamycin (10 mg/kg). Test articles in 5% mannitol were then administered orally 3x per day (TID), starting on Day 2 at 18 hours after clindamycin injection, for 5 consecutive days (Days 2 through 6). USP-grade vancomycin (positive control) was prepared in water for injection (WFI) at 50 mg/mL and stored refrigerated during the course of the study. […] Data was analyzed using GraphPad Prism 6.0d. […]

C. difficile [6] = test system: C. difficile; design: method as in PMID 20974818; details: cited from earlier work
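Wherever Forced degradation Δ Conc is given: purity and concentration determined by HPLC on aqueous solutions kept in a stability chamber, with samples analyzed at day 0 and after incubation.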
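Wherever Forced degradation Δ Purity is given: purity and concentration determined by HPLC on aqueous solutions kept in a stability chamber, with samples analyzed at day 0 and after incubation.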

Molecule | MIC 50 (C. difficile [1]) | MIC 90 (C. difficile [1]) | MIC Mode (C. difficile [1]) | MIC Range (C. difficile [1]) | Minimum Inhibitory Concentration C. difficile 103-1 (C. difficile [1]) | Minimum Inhibitory Concentration C. difficile 107-1 (C. difficile [1]) | Minimum Inhibitory Concentration C. difficile ATCC 9689 (C. difficile [1]) | Minimum Inhibitory Concentration C. difficile ATCC 43597 (C. difficile [1]) | Minimum Inhibitory Concentration C. difficile ATCC BAA-1805 (C. difficile [1]) | Minimum Inhibitory Concentration C. difficile ATCC BAA-1808 (C. difficile [1]) | Minimum Inhibitory Concentration C. difficile ATCC BAA-1874 (C. difficile [1]) | Minimum Inhibitory Concentration C. difficile ATCC BAA-1875 (C. difficile [1]) | solubility [2] | Forced degradation Δ Conc ([3]; 2 Days at 37°C) | Forced degradation Δ Purity ([3]; 2 Days at 37°C) | Forced degradation Δ Conc ([3]; 2 Days at +50°C) | Forced degradation Δ Purity ([3]; 2 Days at +50°C) | Forced degradation Δ Conc ([3]; 7 Days at 37°C) | Forced degradation Δ Purity ([3]; 7 Days at 37°C) | Forced degradation Δ Conc ([3]; 7 Days at +50°C) | other results
C=C1NC(=O)[C@H](Cc2c[nH]c3ccccc23)NC(=O)[C@H](NC(=O)[C@H](CCCCN)NC(=O)[C@@H](N)[C@@H](C)CC)CSC[C@@H](C(=O)N[C@H]2C(=O)N3CCC[C@H]3C(=O)NCC(=O)N[C@H](C(=O)N[C@@H](C)C(=O)N[C@@H](CC(=O)O)C(=O)N/C(=C\C)C(=O)NCC(=O)N[C@@H]3CSC[C@@H]4NC(=O)[C@H](Cc5ccc(O)cc5)NC(=O)[C@@H](CS/C=C\NC4=O)NC(=O)[C@H](CC(N)=O)NC(=O)[C@H](Cc4ccccc4)NC3=O)CS[C@H]2C)NC(=O)[C@H](CC(C)C)NC1=O [OG703] | 1 mg/L (≈ 0.457 µM) | 2 mg/L (≈ 0.913 µM) | 1 mg/L (≈ 0.457 µM) | 0.5 to 2 mg/L | 0.5 µg/mL | 2 µg/mL | 2 µg/mL | 1 µg/mL | 1 µg/mL | 1 µg/mL | 0.5 µg/mL | 1 µg/mL | 7 mg/mL (≈ 3200 µM) | -9.2% and -9% | -0.97% | -15% | -1.74% | -13.4% and -13% | -1.04% | -30.3% and -30% | Forced degradation Δ Purity ([3]; 7 Days at +50°C): -4.79%; solubility reduced relative to OG706 [4]: 2-3 fold
C=C1NC(=O)[C@H](Cc2c[nH]c3ccccc23)NC(=O)[C@H](NC(=O)[C@H](CCCCN)NC(=O)[C@@H](N)[C@@H](C)CC)CSC[C@@H](C(=O)N[C@H]2C(=O)N3CCC[C@H]3C(=O)NCC(=O)N[C@H](C(=O)N[C@@H](C)C(=O)N[C@@H](C)C(=O)N/C(=C\C)C(=O)NCC(=O)N[C@@H]3CSC[C@@H]4NC(=O)[C@H](Cc5ccc(O)cc5)NC(=O)[C@@H](CS/C=C\NC4=O)NC(=O)[C@H](CC(N)=O)NC(=O)[C@H](Cc4ccccc4)NC3=O)CS[C@H]2C)NC(=O)[C@H](CC(C)C)NC1=O [OG711] | 0.5 mg/L (≈ 0.233 µM) | 1 mg/L (≈ 0.466 µM) | 0.25 mg/L (≈ 0.117 µM) | 0.25 to 1 mg/L | 0.25 µg/mL | 1 µg/mL | 1 µg/mL | 0.5 µg/mL | 0.25 µg/mL | 0.25 µg/mL | 0.5 µg/mL | 0.5 µg/mL | 12 to 18 mg/mL (≈ 5590 to 8390 µM) | -12.5% and -13% | -1.24% | -8.7% and -9% | -0.61% | -10.8% and -11% | -0.63% | -40.1% and -40% | Forced degradation Δ Purity ([3]; 7 Days at +50°C): -2.94%; improvement in half-life in FaSSIF (stability to proteolytic degradation) relative to OG253 [5]: > 50 fold
C=C1NC(=O)[C@H](Cc2c[nH]c3ccccc23)NC(=O)[C@H](NC(=O)[C@H](CCCCN)NC(=O)[C@@H](N)[C@@H](C)CC)CSC[C@@H](C(=O)N[C@H]2C(=O)N3CCC[C@H]3C(=O)NCC(=O)N[C@H](C(=O)N[C@@H](C)C(=O)N[C@@H](CC(N)=O)C(=O)N/C(=C\C)C(=O)NCC(=O)N[C@@H]3CSC[C@@H]4NC(=O)[C@H](Cc5ccccc5)NC(=O)[C@@H](CS/C=C\NC4=O)NC(=O)[C@H](CC(N)=O)NC(=O)[C@H](Cc4ccccc4)NC3=O)CS[C@H]2C)NC(=O)[C@H](CC(C)C)NC1=O [OG718] | 0.5 mg/L (≈ 0.23 µM) | 1 mg/L (≈ 0.46 µM) | 0.5 mg/L (≈ 0.23 µM) | 0.25 to 1 mg/L | 0.25 µg/mL | 0.5 µg/mL | 0.5 µg/mL | 0.5 µg/mL | 0.5 µg/mL | 0.25 µg/mL | 0.5 µg/mL | 1 µg/mL | > 24 mg/mL | -9.1% and -9% | -2.07% | -29.4% and -29% | -4.90% | -21% | -7.42% | -43.8% and -44% | Forced degradation Δ Purity ([3]; 7 Days at +50°C): -12.84%
CN[C@H](CC(C)C)C(=O)N[C@H]1C(=O)N[C@@H](CC(N)=O)C(=O)N[C@H]2C(=O)N[C@H]3C(=O)N[C@H](C(=O)N[C@H](C(=O)O)c4cc(O)cc(O)c4-c4cc3ccc4O)[C@H](O)c3ccc(c(Cl)c3)Oc3cc2cc(c3O[C@@H]2O[C@H](CO)[C@@H](O)[C@H](O)[C@H]2O[C@H]2C[C@](C)(N)[C@H](O)[C@H](C)O2)Oc2ccc(cc2Cl)[C@H]1O [Vancomycin, reference compound] |  |  |  |  |  |  |  |  |  |  |  |  |  |  |  |  |  |  |  |  | Minimum Inhibitory Concentration C. difficile Range (C. difficile [1]; 8 C. difficile strains): 0.5 to 4 mg/mL; MIC 50 (C. difficile [1]; Clostridioides difficile): 0.5 mg/L (≈ 0.345 µM); MIC 90 (C. difficile [1]; Clostridioides difficile): 4 mg/L (≈ 2.76 µM); MIC Range (C. difficile [1]; panel of C. difficile strains, n = 8): 0.5 to 4 mg/L; survival (C. difficile UNT103-1; 20 mg/kg oral gavage x 5 days (test compounds TID, vancomycin QD), outcome of the study (Day 21)): 83%; C. difficile spore count of cecal samples (C. difficile UNT103-1; 20 mg/kg oral gavage x 5 days, cecal contents at death or Day 21): 2.96 log10 CFU/mL; spore counts compared to control (vehicle-treated) animals (C. difficile UNT103-1; cecal contents at death or Day 21): significantly lower
gallidermin (IASKFLCTPGCAKTGSFNSYCC; also: lantibiotic (lanthionine rings and dehydro residues not given here); UniProt P21838 31-52, looked up) [lantibiotic / cationic antimicrobial peptide] |  |  |  |  |  |  |  |  |  |  |  |  |  |  |  |  |  |  |  |  | MIC increase of C. difficile (C. difficile [6]; cpr induction in vitro): 2–4 fold; MIC of C. difficile (C. difficile [6]; level reached after MIC increase (cpr induction)): ~ 1 μg/ml
